# Results reported in patent publication US10682320B2, “Method for inhibiting osteoclast development” (West Virginia University, priority 2012, dated 2020).
# How the values were obtained:
# [1] = molecular target: T1, CRAC channel (Orai I / STIM I) (Homo sapiens, UniProt Q13586); assay: Whole cell CRAC current (Icrac) in HEK293 cells expressing Orai I and YFP-STIM I; type: cell-based; conditions: whole cell clamp
# T1 construct: expressed in transfected cells; host or cells: HEK293
# Protocol: Analysis was performed in HEK293 cells stably expressing Orai I and transfected with STIM I YFP used conventional whole cell voltage recordings as described (see, Wang Y, Deng X, Zhou Y, Hendron E, Mancarelia S, Ritchie M F. Tang X D, Baba Y, Kurosaki T, Mori Y, Soboloff J, Gill D L., “STIM protein coupling in the activation of Orai channels”, Proc Natl Acad Sci USA Vol. 106, pages 7391-7396, 2009). Immediately after establishment of the whole-cell electrode seal, voltage ramps spanning from—100 to +100 mV in 50 msec were delivered from a holding potential of 0 mV at a rate of 0.5 Hz. A 10 mV junction potential compensation was applied. […]
# The haloanilide DCPA blocks store-operated Ca^2+ channel function in Jurkat cells with no effect on ER Ca^2+ content. […] To address this, the present inventor examined HEK293 cells stably expressing Orai I and transiently transfected with YFP-STIMI and measured the effect of DCPA on CRAC current or Icrac. CRAC channel activity was measured in the whole cell clamp position after passively depleting Ca^2+ stores via the presence of 10 mM EGTA in the patch pipette. […]
# [2] = system: human monocytes differentiating into osteoclasts; assay: Human osteoclast differentiation in vitro (multinucleation, TRAP); type: cell-based; conditions: 8 days after RANKL
# Protocol: Human monocytes were isolated from normal buffy coat cells (60-80 ml) obtained with approval of institutional review boards by separation from donor blood, the white-cell depleted blood retained for clinical use. Human monocyte culture and differentiation were as reported (see, Yaroslayskly B B, Zhang Y, Kalla S E, Garcia P V, Sharrow A C, Li Y, Zaidi M, Wu C, Blair H C, “NO-dependent osteoclast motility: Reliance on cGMP-dependent protein kinase I and VASP”, J Cell Sci I, Vol. 18, pages 5479-5487, 2005). Briefly, human monocytes cells were isolated from buffy coat on ficoll lymphocyte separation media and cultured at ˜6×10^5 cells per cm^2 in monocyte maintenance medium, Dulbecco's modified essential medium (DMEM) with 20 ng/ml of human m-CSF and 10% FBS, for 24 hours (h). After 24 h in culture, the medium was changed to osteoclast differentiation medium containing in addition of human 50 ng/ml of RANKL, with the additional inhibitors or activators as specified in results. Human osteoclast cultures were generally maintained for a minimum of 7 days before analysis, or longer times as specified in results.
# The effect of DCPA on human osteoclast differentiation 8 days after addition of RANKL was evaluated.
# STIM I = molecular target: T2, STIM I (Homo sapiens, UniProt Q13586); assay: STIM I puncta formation in HEK293 cells transfected with YFP-STIM I; type: cell-based; conditions: 2 μM thapsigargin, 16 minute period
# T2 construct: expressed in transfected cells; host or cells: HEK293
# Protocol: HEK293 cells, maintained in DMEM with 10% FBS, were transfected with YFP-STIM I using Lipofectamine 2000 (Invitrogen, Carlsbad, Calif.) for 5 h (37° C.; 5% CO2) followed by a 24-h recovery. Cells were placed in 140 mM NaCl, 5 mM KCl, 1 mM MgCl2, 10 mM glucose, 15 mM HEPES, 0.1% BSA, 2 mM CaCl2 and analyzed by confocal microscopy for STIM I puncta formation using a Nikon phase-fluorescence microscope with CCD detectors (Diagnostic instruments, Sterling Heights, Mich.). Phase or transmitted light microscopy used 10-40× objectives and red, green, and blue filters to assemble color images. Fluorescence images used 1.4 NA 40× oil objectives. Red fluorescence used excitation at 530-560 nm, a 575 nm dichroic minor, and 580-650 nm emission filter. Transfection data were analyzed using Nikon NIS Elements Imaging Software. The effect of DCPA on STIM I/Orai I association was determined in wild-type HEK293 cells transfected with STIM I-YFP as described in Wang Y, Deng X, Zhou Y, Hendron E, Mancarelia S, Ritchie M F, Tang X D, Baba Y, Kurosaki T, Mori Y, Soboloff J, Gill DL, “STIM protein coupling in the activation of Orai channels”, Proc Natl Acad Sci USA, Vol. 106, pages 7391-7396, 2009. Experiments were performed on a Leica DMI 6000B fluorescence microscope controlled by Slidebook Software (Intelligent Imaging Innovations, Denver, Colo.). […]
# [3] = cited from earlier work
# T1 sequence (Q13586 23-685): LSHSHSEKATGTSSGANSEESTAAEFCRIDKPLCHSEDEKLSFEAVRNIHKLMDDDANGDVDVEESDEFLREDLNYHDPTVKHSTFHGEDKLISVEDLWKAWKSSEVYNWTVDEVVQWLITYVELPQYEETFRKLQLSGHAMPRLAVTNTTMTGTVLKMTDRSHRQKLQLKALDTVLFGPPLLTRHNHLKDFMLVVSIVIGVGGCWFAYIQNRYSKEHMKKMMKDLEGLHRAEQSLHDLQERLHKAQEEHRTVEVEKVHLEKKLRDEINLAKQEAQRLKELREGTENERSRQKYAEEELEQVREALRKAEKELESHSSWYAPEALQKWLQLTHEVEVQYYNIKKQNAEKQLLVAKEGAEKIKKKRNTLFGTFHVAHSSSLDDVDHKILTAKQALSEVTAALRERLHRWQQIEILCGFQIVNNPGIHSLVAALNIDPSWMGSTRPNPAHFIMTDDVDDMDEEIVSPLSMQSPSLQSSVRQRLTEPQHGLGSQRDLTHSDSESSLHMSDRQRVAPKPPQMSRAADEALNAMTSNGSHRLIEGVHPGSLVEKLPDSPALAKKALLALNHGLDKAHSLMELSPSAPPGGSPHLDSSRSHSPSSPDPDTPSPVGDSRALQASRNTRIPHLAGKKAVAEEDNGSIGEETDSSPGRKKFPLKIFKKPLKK
# T2 sequence (Q13586 23-685): as above
smiles,measurement,setting,value
"CCC(=O)Nc1ccc(Cl)c(Cl)c1 [DCPA, N-(3,4-dichlorophenyl)propanamide]",current-voltage relationship versus control cells,[1],did not show significant differences
same,time for CRAC current to return to baseline after break-in,[1]; 10 mM EGTA in pipette,less than 4 minutes
same,number of multinucleated TRAP+ cells,[2]; 1.0 μM,minimal effect
same,number of multinucleated cells,[2]; 10 and 100 μM,marked progressive reduction
same,TRAP activity,[2]; up to highest concentration (100 μM),no differences
same,STIM I puncta formation after store depletion,STIM I,dramatically inhibited
same,doses mice can tolerate,[3],> 100 mg/kg
same,doses producing frank immunotoxicity,[3]; mice,> 150 mg/kg
